Assay: an = ratio of the nth substance listed
Conditions: 101 kPa, Liquid; for mass density: Vibrating tube method; for viscosity: rotating cylinders

C[N+](C)(C)CCO.[Cl-] [choline chloride] + OCC(O)CO
Conditions | mass density, a2 = 2 [kg/m3] | mass density, a2 = 4 [kg/m3] | viscosity, a2 = 2 [mPa·s] | viscosity, a2 = 4 [mPa·s]
293.15 K | 1194 | 1217 | 514.6 | 578.2
298.15 K | 1191 | 1214 | 365.7 | 400.3
303.15 K | 1188 | 1211 | 265.7 | 283.4
308.15 K | 1185 | 1208 | 197 | 205.1
313.15 K | 1183 | 1205 | 148.9 | 151.7
318.15 K | 1180 | 1202 | 114.7 | 113
323.15 K | 1177 | 1200 | 89.81 | 87.96

C[N+](C)(C)C.[Cl-] [tetramethylammonium chloride] + OCC(O)CO
Conditions | mass density, a2 = 2 [kg/m3] | mass density, a2 = 4 [kg/m3] | viscosity, a2 = 2 [mPa·s] | viscosity, a2 = 4 [mPa·s]
293.15 K | 1158 | 1180 | 581.8 | 557.5
298.15 K | 1155 | 1177 | 406.9 | 384.7
303.15 K | 1152 | 1174 | 290.5 | 272
308.15 K | 1149 | 1171 | 212.4 | 197
313.15 K | 1147 | 1168 | 158.5 | 145.8
318.15 K | 1144 | 1166 | 120.7 | 110.2
323.15 K | 1141 | 1163 | 93.57 | 84.8
